Reference: ChEMBL document CHEMBL3734699, “A new cerebroside from the fruiting bodies of Hericium erinaceus and its applicability to cancer treatment” (Bioorg Med Chem Lett, 2015)
The source made the active and inactive calls. The calls are words filed in the database; no cut-off is given here.

Legend:
[1] = system: HUVEC; assay: Antiangiogenesis activity in HUVEC assessed as inhibition of VEGF-induced tube formation at 25 uM; type: functional, cell-based; conditions: Homo sapiens
[2] = system: LLC-PK1; assay: Renoprotective activity in pig LLC-PK1 cells assessed as inhibition of cisplatin-induced nephrotoxicity at 100 to 200 uM preincubated for 2 hrs followed by cisplatin challenge measured after 24 hrs by MTT assay; type: functional, cell-based; conditions: Sus scrofa
[3] = system: HUVEC; assay: Cytotoxicity in HUVEC assessed as reduction in cell viability up to 50 uM; type: cell-based; conditions: human
[4] = molecular target: Acetylcholinesterase (Homo sapiens) (UniProt P22303); assay: Inhibition of acetylcholine esterase (unknown origin) up to 200 uM by Ellman's colorimetric method
Sequence of Acetylcholinesterase (Homo sapiens) (P22303 whole entry): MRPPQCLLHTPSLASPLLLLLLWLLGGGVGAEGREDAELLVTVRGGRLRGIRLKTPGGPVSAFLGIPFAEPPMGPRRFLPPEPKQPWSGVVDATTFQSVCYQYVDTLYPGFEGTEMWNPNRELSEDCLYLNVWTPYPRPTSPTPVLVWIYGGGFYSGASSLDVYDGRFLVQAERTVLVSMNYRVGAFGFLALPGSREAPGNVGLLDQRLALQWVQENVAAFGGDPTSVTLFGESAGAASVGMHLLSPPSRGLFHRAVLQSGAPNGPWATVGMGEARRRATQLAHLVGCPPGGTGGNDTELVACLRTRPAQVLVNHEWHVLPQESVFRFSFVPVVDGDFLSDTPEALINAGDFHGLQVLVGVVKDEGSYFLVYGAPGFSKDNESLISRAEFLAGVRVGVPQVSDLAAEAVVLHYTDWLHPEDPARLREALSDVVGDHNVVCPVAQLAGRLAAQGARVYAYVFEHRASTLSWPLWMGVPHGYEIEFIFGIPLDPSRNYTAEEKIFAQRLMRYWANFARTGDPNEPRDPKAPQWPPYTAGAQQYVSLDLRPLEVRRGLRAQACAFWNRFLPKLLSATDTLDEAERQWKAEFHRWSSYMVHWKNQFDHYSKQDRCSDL

[5] = Antioxidant activity of the compound assessed as DPPH radical scavenging activity by colorimetric method; type: physicochemical
[6] = system: HUVEC; assay: Antiangiogenesis activity in HUVEC assessed as inhibition of VEGF-induced tube formation at 50 uM; type: functional, cell-based; conditions: Homo sapiens

Structure (SMILES)	Activity [1]	Activity [2]	Activity [3]	inhibition [4]	Activity [5]	Activity [6]
CC(C)=CCC[C@](C)(O[C@@H]1O[C@H](CO)[C@@H](O)[C@H](O)[C@H]1O)[C@H]1CC[C@]2(C)[C@@H]1[C@H](O)C[C@@H]1[C@@]3(C)CC[C@H](O)C(C)(C)[C@@H]3CC[C@]12C	Active					
CCCCCCCCCCCCCCCC[C@@H](O)C(=O)N[C@@H](CO[C@@H]1O[C@H](CO)[C@@H](O)[C@H](O)[C@H]1O)[C@H](O)/C=C/CC/C=C(\C)CCCCCC	Active	Active	Non-toxic	inactive	Not Active	Active
